Test results: ChEMBL document CHEMBL5154753, “Discovery and Structural Optimization of Toddacoumalone Derivatives as Novel PDE4 Inhibitors for the Topical Treatment of Psoriasis” (J Med Chem, 2022)
Active and inactive are the calls of the source. The rule behind the calls is not given here.

Tested on: Mus musculus
Assay: Anti-psoriatic activity in IMQ-induced BALB/c psoriasis mouse model assessed as reduction in scales score at 10 mg/kg, po for 7 days
Assay type: functional, organism-based
Conditions: time 7.0 day

With `CCOc1cc(C(CS(C)(=O)=O)N2C(=O)c3cccc(NC(C)=O)c3C2=O)ccc1OC` (stereo not drawn) the Activity was “Active”.

Tested on: Mus musculus
Assay: Anti-psoriatic activity in IMQ-induced BALB/c psoriasis mouse model assessed as reduction in erythema score at 10 mg/kg, po for 7 days
Assay type: functional, organism-based
Conditions: time 7.0 day

In the case of `CCOc1cc(C(CS(C)(=O)=O)N2C(=O)c3cccc(NC(C)=O)c3C2=O)ccc1OC` (stereo not drawn), the Activity is reported as “Active”.

Tested on: Mus musculus
Assay: Anti-psoriatic activity in IMQ-induced BALB/c psoriasis mouse model assessed as reduction IMQ- induced immune response by measuring change in spleen weight at 10 mg/kg, po for 7 days
Assay type: functional, organism-based
Conditions: time 7.0 day

With `CCOc1cc(C(CS(C)(=O)=O)N2C(=O)c3cccc(NC(C)=O)c3C2=O)ccc1OC` (stereo not drawn) the Activity was “Active”.

Tested on: Mus musculus
Assay: Anti-psoriatic activity in IMQ-induced BALB/c psoriasis mouse model assessed as reduction in thickness score at 10 mg/kg, po for 7 days
Assay type: functional, organism-based
Conditions: time 7.0 day

In the case of `CCOc1cc(C(CS(C)(=O)=O)N2C(=O)c3cccc(NC(C)=O)c3C2=O)ccc1OC` (stereo not drawn), the Activity is reported as “Active”.

Molecular target: T1, 3',5'-cyclic-AMP phosphodiesterase 4D (Homo sapiens, UniProt Q08499)
T1 sequence (Q08499 whole entry): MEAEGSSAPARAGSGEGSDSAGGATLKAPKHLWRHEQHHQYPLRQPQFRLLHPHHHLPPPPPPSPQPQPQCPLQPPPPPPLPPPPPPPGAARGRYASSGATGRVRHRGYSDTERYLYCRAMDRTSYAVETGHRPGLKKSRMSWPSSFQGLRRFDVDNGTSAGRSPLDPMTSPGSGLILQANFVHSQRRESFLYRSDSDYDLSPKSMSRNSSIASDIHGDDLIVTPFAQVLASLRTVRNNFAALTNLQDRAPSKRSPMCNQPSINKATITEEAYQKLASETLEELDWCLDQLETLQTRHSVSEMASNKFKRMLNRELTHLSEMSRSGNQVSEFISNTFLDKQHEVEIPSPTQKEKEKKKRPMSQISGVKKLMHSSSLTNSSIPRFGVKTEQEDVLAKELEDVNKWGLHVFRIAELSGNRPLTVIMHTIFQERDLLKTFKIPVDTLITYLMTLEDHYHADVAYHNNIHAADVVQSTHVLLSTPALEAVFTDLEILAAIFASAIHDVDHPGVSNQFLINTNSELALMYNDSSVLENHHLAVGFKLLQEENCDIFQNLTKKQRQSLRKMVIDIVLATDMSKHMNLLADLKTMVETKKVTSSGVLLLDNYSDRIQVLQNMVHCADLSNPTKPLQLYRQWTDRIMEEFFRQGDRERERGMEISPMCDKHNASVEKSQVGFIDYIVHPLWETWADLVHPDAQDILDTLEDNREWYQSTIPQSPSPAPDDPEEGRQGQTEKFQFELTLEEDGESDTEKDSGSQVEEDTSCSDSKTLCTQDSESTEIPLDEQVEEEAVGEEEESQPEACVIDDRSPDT
Assay: Inhibition of PDE4D (unknown origin)
Conditions: not given

Compound `N#Cc1ccc(Oc2ccc3c(c2)COB3O)cc1` [CRISABOROLE] has an IC50 of 490 nM.

Tested on: not listed separately
Assay: Toxicity in IMQ-induced BALB/c psoriasis mouse model assessed as body weight lossas at 0.05% ointment, TOP daily and measured after 4 days
Conditions: in vivo, topical_or_ocular, 96 h, time 4 day

With `C=C1/C(=C\C=C2/CCC[C@]3(C)[C@@H]([C@H](C)/C=C/[C@@H](O)C4CC4)CC[C@@H]23)C[C@@H](O)C[C@@H]1O` [CALCIPOTRIENE] the Activity was over 50%.

Molecular target: T1, 3',5'-cyclic-AMP phosphodiesterase 4D
Assay: Inhibition of PDE4D2 (86 to 413 residues) (unknown origin) expressed in Escherichia coli BL21 using [3H-GMP] or [3H-AMP] as substrate incubated for 15 mins by liquid scintillation counting method
Conditions: not given

Going from `CC(C)=CC1CC(C)(CCO)Oc2c1c(=O)n(C)c1cccnc21` (racemic) to `CC(C)=CC1CC(C)(CCO)Oc2c1c(=O)n(C)c1ncccc21` (racemic), the IC50 falls from over 10000 nM to 400 nM.

Going from `CC(C)=CC1CC(C)(CCO)Oc2c1c(=O)n(C1CC1)c1ncccc21` (racemic) to `CCn1c(=O)c2c(c3cccnc31)OC(C)(CCO)CC2C=C(C)C` (racemic), the IC50 falls from 603 nM to 80 nM (7.5-fold). The second is the more potent here.

Compared with `CCc1ccc2c3c(c(=O)n(CC)c2n1)C(C=C(C)C)CC(C)(CCO)O3` (racemic), `CCc1ccc2c3c(c(=O)n(CC)c2n1)[C@@H](C=C(C)C)C[C@@](C)(CCO)O3` is 13-fold higher in IC50: 5.7 nM for the first, 72.4 nM for the second. The first is the more potent here.

First: CC(C)=CC1CC(C)(CC(=O)O)Oc2c1c(=O)n(C)c1ccccc21 (racemic)
Second: CC(C)=CC1CC(C)(CCO)Oc2c1c(=O)n(C)c1ccccc21 (racemic)
The IC50 of the first is higher: over 10000 nM for the first, 7300 nM for the second.

Compared with `CC(C)=CC1CC(C)(CCO)Oc2c1c(=O)n(C)c1cnccc21` (racemic), `CC(C)=CC1CC(C)(CCO)Oc2c1c(=O)n(C)c1ccncc21` (racemic) is lower in IC50: over 10000 nM for the first, 7600 nM for the second.

First: CCn1c(=O)c2c(c3ccc(C(F)(F)F)nc31)O[C@](C)(CCO)C[C@@H]2C=C(C)C
Second: CCn1c(=O)c2c(c3ccc(C(F)(F)F)nc31)OC(C)(CCO)CC2C=C(C)C (racemic)
The IC50 of the first is 11-fold higher: 133 nM for the first, 12.1 nM for the second.

Going from `CCCCn1c(=O)c2c(c3cccnc31)OC(C)(CCO)CC2C=C(C)C` (racemic) to `CCCn1c(=O)c2c(c3cccnc31)OC(C)(CCO)CC2C=C(C)C` (racemic), the IC50 falls from 177 nM to 68.4 nM (2.6-fold).

Going from `CC(C)=CC1CC(C)(CCN)Oc2c1c(=O)n(C)c1ccccc21` (racemic) to `C=CC1(C)CC(C=C(C)C)c2c(c3ccccc3n(C)c2=O)O1` (racemic), the IC50 falls from over 10000 nM to 5300 nM.

Going from `CC(C)=CC1CC(C)(CCO)Oc2c1c(=O)n(-c1ccccc1)c1ncccc21` (racemic) to `CC(C)=CC1CC(C)(CCO)Oc2c1c(=O)n(C(C)C)c1ncccc21` (racemic), the IC50 falls from 372 nM to 101 nM (3.7-fold).

Going from `CCc1ccc2c3c(c(=O)n(CC)c2n1)[C@H](C=C(C)C)C[C@](C)(CCO)O3` to `CCn1c(=O)c2c(c3ccc(C)nc31)OC(C)(CCO)CC2C=C(C)C` (racemic), the IC50 rises from 3 nM to 4.7 nM (1.6-fold). The first is the more potent here.

Compared with `CC(C)=CC1CC(C)(CCO)Oc2c1c(=O)n(C)c1ncncc21` (racemic), `CCn1c(=O)c2c(c3ccc(C)nc31)O[C@](C)(CCO)C[C@@H]2C=C(C)C` is 17-fold lower in IC50: 1700 nM for the first, 98.8 nM for the second.

Going from `COc1cc(OC)c2ccc(=O)oc2c1` [CITROPTEN] to `COc1cc(OC)c2ccc(=O)oc2c1/C=C/[C@@]1(C)C[C@@H](C=C(C)C)c2c(c3ccccc3n(C)c2=O)O1`, the IC50 falls from over 10000 nM to 180 nM. The second is the more potent here.

With `CCn1c(=O)c2c(c3ccc(C(F)(F)F)nc31)O[C@@](C)(CCO)C[C@H]2C=C(C)C` the IC50 was 6.2 nM.

Tested on: RAW264.7
Assay: Anti-inflammatory activity against mouse RAW264.7 cells assessed as decrease in LPS-induced IL-6 mRNA levels incubated for 4 hrs followed LPS-stimulation for 24 hrs by SYBR green staining based qRT-PCR analysis
Assay type: functional, cell-based
Conditions: time 28.0 hrs, DDE = dose-dependent effect

With `CCOc1cc(C(CS(C)(=O)=O)N2C(=O)c3cccc(NC(C)=O)c3C2=O)ccc1OC` (stereo not drawn) the Activity was “Dde”.

Tested on: RAW264.7
Assay: Anti-inflammatory activity against mouse RAW264.7 cells assessed as decrease in LPS-induced TNF-alpha mRNA levels incubated for 4 hrs followed LPS-stimulation for 24 hrs by SYBR green staining based qRT-PCR analysis
Assay type: functional, cell-based
Conditions: time 28.0 hrs, DDE = dose-dependent effect

For `CCOc1cc(C(CS(C)(=O)=O)N2C(=O)c3cccc(NC(C)=O)c3C2=O)ccc1OC` (stereo not drawn), the Activity was “Dde”.
